Assay results from US4822879A, “Enzyme-inhibitory griseolic acid derivatives, and their use” (Sankyo Company Limited, priority 1984, dated 1989).

How the values were obtained:
cAMP PDE = assay: Enzyme inhibitory activity, cAMP PDE (crude enzymatic solution from rat brains); type: biochemical; details: for IC50: 14C-labeled cAMP substrate 0.14 μmoles, pH 8.0, 30° C., 20 minutes, read-out: I50 (50% inhibition value); for potency relative to papaverine: ratio to papaverine
Description: The enzyme inhibitory activity of dihydrodesoxygriseolic acid was measured, as was that of griseolic acid itself and that of the known cAMP PDE inhibitor, papaverine, for purposes of comparison.
The test was carried out following essentially the method of A. L. Pichard and Y. U. Chung [Journal of Biological Chemistry, 251, 5726-5737 (1976)]. A crude enzymatic solution derived from rat brains was used as the source of cAMP PDE.
^14 C-labeled cAMP was used as the substrate. It was employed in a 0.2M Tris-hydrochloric acid buffer solution (pH 8.0) in an amount sufficient to provide a final concentration of 0.14 μmoles. "Tris" is tris(hydroxymethyl)aminomethane. The substrate solution was mixed with an appropriate amount of the compound under test dissolved in 2-5 μl of dimethyl sulfoxide and with 20 μl of a snake venom solution and 40 μl of the crude enzyme solution. Sufficient Tris-hydrochloric acid buffer was added to make a total volume of 100 μl. The mixture was allowed to react at 30° C. for 20 minutes. At the end of this time, the reaction mixture was treated with an Amberlite (trademark) IRP-58 resin and the level of residual adenosine radioactivity in the product was determined.
The results are shown in the following Table 1, in which the I50 values are given in μmoles.

[1] = system: male mice of the ddY strain; assay: Acute toxicity, intravenous, mice; details: in words, from Table 2
Text: The compounds under test were griseolic acid and dihydrodesoxygriseolic acid. The test animals were male mice of the ddY strain, 5 weeks of age and weighing 24.25 g. The mice were employed in groups of 3 or 5 animals for each test.
Administration was intravenous.
The results are reported in Table 2, in the form "a/b", where "a" is the number of deceased animals in the test group at the end of the test and "b" is the total number of animals in the relevant test group.

[2] = Water solubility (stated in words); type: physicochemical

Structure (SMILES) | IC50 (cAMP PDE) [nM] | inhibitory activity compared with griseolic acid (cAMP PDE; in words, from Table 1) | potency relative to papaverine (cAMP PDE; from Table 1) | toxicity compared with griseolic acid [1] | water solubility [2]
Nc1ncnc2c1ncn2C1OC2CC(CC(=O)O)(C(=O)O)OC2C1O (centres unmarked) [dihydrodesoxygriseolic acid] | 120 | comparable with that of griseolic acid | about 20 times | substantially less toxic than griseolic acid | water-soluble
Nc1ncnc2c1ncn2[C@@H]1OC2=C[C@@](C(=O)O)(C(O)C(=O)O)O[C@H]2[C@H]1O (some centres unmarked) [griseolic acid] | 160 |  | about 20 times |  | 
COc1ccc(Cc2nccc3cc(OC)c(OC)cc23)cc1OC [papaverine, reference compound] | 3500 |  |  |  | 
